Data taken from PubChem BioAssay AID330 (DTP/NCI, 2004).
“And” between values parts separate entries of the source, which are not always exact repeats. Equal entries are not always repeated. Toxic doses and inconclusive results are not listed.

Test system: P388 leukemia ip, CD2F1 mice, survival T/C
Experiment: NCI In Vivo Anticancer Drug Screen. Data for tumor model P388 Leukemia (intraperitoneal) in CD2F1 (CDF1) mice
Details: endpoint: median survival time, higher = longer survival
In short: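 Mice carrying the transplanted tumor received test compound or vehicle. Survival was recorded in each group, and the value is the treated-group measurement divided by that of the vehicle-treated control group.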

[1] = dose: 60.0 mg/kg/injection, schedule: Q01DX005 (ip), vehicle: saline with Tween-80
[2] = dose: 120.0 mg/kg/injection, schedule: Q01DX005 (ip), vehicle: saline with Tween-80
[3] = dose: 240.0 mg/kg/injection, schedule: Q01DX005 (ip), vehicle: saline with Tween-80
[4] = dose: 50.0 mg/kg/injection, schedule: Q01DX005 (ip), vehicle: saline
[5] = dose: 100.0 mg/kg/injection, schedule: Q01DX005 (ip), vehicle: saline
[6] = dose: 50.0 mg/kg/injection, schedule: Q01DX005 (ip), vehicle: saline with Tween-80
[7] = dose: 100.0 mg/kg/injection, schedule: Q01DX005 (ip), vehicle: saline with Tween-80
[8] = dose: 200.0 mg/kg/injection, schedule: Q01DX005 (ip), vehicle: saline with Tween-80

With Cn1c(-c2ccc3c(c2)OCO3)nn(CN2CCOCC2)c1=S the T/C (dose: 50.0 mg/kg/injection, schedule: Q01DX005 (ip), vehicle: Klucel (hydroxypropylcellulose) (HPC)) was 97 % of control, the T/C (dose: 100.0 mg/kg/injection, schedule: Q01DX005 (ip), vehicle: Klucel (hydroxypropylcellulose) (HPC)) was 100 % of control and the T/C (dose: 200.0 mg/kg/injection, schedule: Q01DX005 (ip), vehicle: Klucel (hydroxypropylcellulose) (HPC)) was 107 % of control.

Cc1ccnc(NC(=O)Nc2cc(F)ccc2F)c1 was tested, and the T/C (dose: 30.0 mg/kg/injection, schedule: Q01DX005 (ip), vehicle: saline with Tween-80) was 87 % of control, the T/C [1] was 87 % of control and 89 % of control and the T/C [2] was 101 % of control. For the same compound, the T/C [3] was 87 % of control.

With CC(=O)NCCn1ccnc1 the T/C (dose: 50.0 mg/kg/injection, schedule: Q01DX009 (ip), vehicle: saline) was 95 % of control, the T/C (dose: 100.0 mg/kg/injection, schedule: Q01DX009 (ip), vehicle: saline) was 102 % of control and the T/C (dose: 200.0 mg/kg/injection, schedule: Q01DX009 (ip), vehicle: saline) was 102 % of control.

With O=c1c(O)cc2c(O)oc3c(=O)c(O)c(O)c4c(O)oc1c2c43 the T/C (dose: 25.0 mg/kg/injection, schedule: Q01DX009 (ip), vehicle: suspension in saline) was 114 % of control and 97 % of control, the T/C (dose: 50.0 mg/kg/injection, schedule: Q01DX009 (ip), vehicle: suspension in saline) was 111 % of control and 97 % of control and the T/C (dose: 100.0 mg/kg/injection, schedule: Q01DX009 (ip), vehicle: suspension in saline) was 112 % of control and 98 % of control. For the same compound, the T/C (dose: 200.0 mg/kg/injection, schedule: Q01DX009 (ip), vehicle: suspension in saline) was 103 % of control and 114 % of control.

In the case of O=CC(Br)C(Br)c1ccccc1 (stereo not given), the T/C (dose: 6.25 mg/kg/injection, schedule: Q01DX009 (ip), vehicle: saline with Tween-80) is reported as 122 % of control, the T/C (dose: 6.25 mg/kg/injection, schedule: Q04DX003 (ip), vehicle: saline with Tween-80) is reported as 109 % of control and the T/C (dose: 12.5 mg/kg/injection, schedule: Q01DX009 (ip), vehicle: saline with Tween-80) is reported as 109 % of control. The T/C (dose: 12.5 mg/kg/injection, schedule: Q04DX003 (ip), vehicle: saline with Tween-80) was 109 % of control, the T/C (dose: 25.0 mg/kg/injection, schedule: Q01DX009 (ip), vehicle: saline with Tween-80) was 100 % of control and the T/C (dose: 25.0 mg/kg/injection, schedule: Q04DX003 (ip), vehicle: saline with Tween-80) was 113 % of control.

For CCN(CC)C(=O)c1cccc2c1OCO2, the T/C [1] was 94 % of control, the T/C [2] was 98 % of control and the T/C [3] was 95 % of control.

For COc1ccc(C=Nc2ccccc2)cc1, the T/C (dose: 100.0 mg/kg/injection, schedule: Q01DX009 (ip), vehicle: saline with Tween-80) was 100 % of control, the T/C (dose: 200.0 mg/kg/injection, schedule: Q01DX009 (ip), vehicle: saline with Tween-80) was 118 % of control and the T/C (dose: 400.0 mg/kg/injection, schedule: Q01DX009 (ip), vehicle: saline with Tween-80) was 118 % of control.

For CCC(CC)C(=O)NN(C)C, the T/C [4] was 101 % of control and the T/C [5] was 100 % of control.

For CC(=O)OC1C(O)C(C)OC(OC2C(OC(=O)C3CCC4C(C3)OC3(CC(OC(=O)/C=C/c5ccccc5)C(C)CO3)C43CO3)OC(CO)C(O)C2OC(C)=O)C1O (stereo not given), the T/C (dose: 1.5 mg/kg/injection, schedule: Q01DX009 (ip), vehicle: saline + alcohol) was 106 % of control and the T/C (dose: 3.0 mg/kg/injection, schedule: Q01DX009 (ip), vehicle: saline + alcohol) was 106 % of control and 116 % of control.

With CC1(C)N=C(Oc2ccc(Cl)cc2Cl)NC(=S)N1 the T/C [1] was 95 % of control, the T/C [2] was 97 % of control and the T/C [3] was 95 % of control.

With CS(=O)(=O)OC1C(O)C(n2cnc3c(N)ncnc32)C(O)C(OS(C)(=O)=O)C1OS(C)(=O)=O (stereo not given) the T/C [1] was 98 % of control, the T/C [2] was 95 % of control and the T/C [3] was 96 % of control.

For CCOc1c(N=Nc2cccc([N+](=O)[O-])c2)c(C)nn1C(=S)SC, the T/C (dose: 60.0 mg/kg/injection, schedule: Q01DX005 (ip), vehicle: Klucel (hydroxypropylcellulose) (HPC)) was 93 % of control and the T/C (dose: 120.0 mg/kg/injection, schedule: Q01DX005 (ip), vehicle: Klucel (hydroxypropylcellulose) (HPC)) was 90 % of control.

For Cn1c(=O)c2[nH]c(Cc3ccsc3)nc2n(C)c1=O, the T/C (dose: 25.0 mg/kg/injection, schedule: Q01DX009 (ip), vehicle: Klucel (hydroxypropylcellulose) (HPC)) was 110 % of control, the T/C (dose: 50.0 mg/kg/injection, schedule: Q01DX009 (ip), vehicle: Klucel (hydroxypropylcellulose) (HPC)) was 93 % of control and the T/C (dose: 100.0 mg/kg/injection, schedule: Q01DX009 (ip), vehicle: Klucel (hydroxypropylcellulose) (HPC)) was 99 % of control and 95 % of control.

In the case of CC1=N[N+](C)(C)C([O-])=C1C, the T/C [6] is reported as 103 % of control, the T/C [7] is reported as 97 % of control and the T/C [8] is reported as 100 % of control.

In the case of O=C(NC(Cc1c[nH]c2ccccc12)C(=O)NC(Cc1ccc(O)cc1)C(=O)O)OCc1ccccc1 (stereo not given), the T/C [6] is reported as 101 % of control, the T/C [7] is reported as 106 % of control and the T/C [8] is reported as 89 % of control.

In the case of C[CH2][Sn]([CH2]C(=O)OC)([CH2]C(=O)OC)[c]1ccccc1, the T/C (dose: 25.0 mg/kg/injection, schedule: Q01DX005 (ip), vehicle: saline) is reported as 157 % of control, the T/C [4] is reported as 181 % of control and the T/C [5] is reported as 168 % of control.
